Where a chain is given by its changes, count along the chain named. Where two headings read alike, the source gives them in different places.
What was measured:
hTRPC5 F414M = molecular target: T1, hTRPC5 F414M (Homo sapiens, UniProt Q9UL62, F414M); experiment: FLIPR calcium assay, hTRPC5 mutant F414M; format: cell-based
T1 construct: We use full-length nontagged hTRPC5 construct for FLIPR assay unless indicated otherwise; expressed in transfected cells; host or cells: AD293
T1 sequence (Q9UL62 1-973 F414M): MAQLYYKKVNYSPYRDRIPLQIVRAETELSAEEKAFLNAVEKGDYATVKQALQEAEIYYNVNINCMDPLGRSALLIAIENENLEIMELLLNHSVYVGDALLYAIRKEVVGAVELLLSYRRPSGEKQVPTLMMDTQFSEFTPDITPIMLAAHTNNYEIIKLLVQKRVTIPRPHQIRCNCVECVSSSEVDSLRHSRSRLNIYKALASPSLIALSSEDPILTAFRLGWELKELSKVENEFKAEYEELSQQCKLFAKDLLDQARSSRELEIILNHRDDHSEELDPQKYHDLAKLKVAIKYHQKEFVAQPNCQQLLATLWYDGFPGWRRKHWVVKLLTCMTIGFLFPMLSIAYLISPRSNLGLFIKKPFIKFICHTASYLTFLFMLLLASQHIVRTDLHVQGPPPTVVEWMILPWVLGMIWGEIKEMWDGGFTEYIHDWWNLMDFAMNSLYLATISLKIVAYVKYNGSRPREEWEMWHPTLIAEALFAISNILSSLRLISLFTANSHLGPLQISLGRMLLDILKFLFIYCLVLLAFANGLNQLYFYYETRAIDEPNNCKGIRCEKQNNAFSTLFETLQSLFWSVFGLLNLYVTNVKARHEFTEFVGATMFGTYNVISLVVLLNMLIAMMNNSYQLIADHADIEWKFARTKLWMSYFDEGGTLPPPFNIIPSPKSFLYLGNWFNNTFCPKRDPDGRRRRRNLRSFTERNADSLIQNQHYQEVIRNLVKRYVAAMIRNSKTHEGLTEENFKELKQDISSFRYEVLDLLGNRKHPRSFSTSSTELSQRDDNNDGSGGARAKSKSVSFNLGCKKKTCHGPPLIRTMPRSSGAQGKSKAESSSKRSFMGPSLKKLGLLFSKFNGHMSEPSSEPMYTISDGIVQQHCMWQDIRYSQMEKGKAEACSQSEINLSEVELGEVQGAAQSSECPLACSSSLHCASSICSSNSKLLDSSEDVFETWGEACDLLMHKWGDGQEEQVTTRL
Protocol: […]. Then the suspended cell culture was further diluted for 5.4- to 7-fold with culture medium and seeded onto black well, clear bottom, poly-D-lysine-coated 96-well plate (Costar) and cultured overnight. We use full-length nontagged hTRPC5 construct for FLIPR assay unless indicated otherwise. hTRPC5 plasmids were transfected into AD293 cells (60-80% confluence) with PEI. 30–40 hr post-transfection, culture medium was discarded and cells were incubated with 50 μl per well of 4 μM Rhod-2/AM (AAT Bioquest) in TARODES’s buffer (10 mM HEPES, 150 mM NaCl, 4 mM KCl, 2 mM MgCl2, 2 mM CaCl2, 11 mM glucose, pH 7.4) supplemented with 0.02% Pluronic F-127 (Sigma) for 5 min in dark at room temperature. Then dye was removed and replaced with 50 μl of TARODE’s buffer per well. The application of compounds and detection of intracellular calcium elevation were performed using FLIPR-TETRA (Molecular Devices) at room temperature (25–27°C). Fluorescence signals were read with excitation/emission at 510–545/565–625 nm.
[…]. Then fluorescence was measured for 300 s.
Buffer A contains 2× concentration of working concentration of inhibitor. […]. for control-Min, both buffer A and buffer B were replaced by TARODE’s buffer.
[…]; the average of fluorescence value of last 20 time points was considered as the ‘end fluorescence’. The value of ‘end fluorescence’ minus ‘start fluorescence’ was considered as ‘signal value’ for each well. […].
Three independent experiments were performed on different days (biological replicates), with each experiment containing three replicates (technique replicates).

hTRPC5 WT = molecular target: T2, hTRPC5 WT (Homo sapiens, UniProt Q9UL62); experiment: FLIPR calcium assay, inhibition of extracellular calcium-induced intracellular calcium increase; format: cell-based
T2 construct: We use full-length nontagged hTRPC5 construct for FLIPR assay unless indicated otherwise; expressed in transfected cells; host or cells: AD293
T2 sequence (Q9UL62 1-973): T1 sequence (Q9UL62 1-973 F414M) with M414F

[1] = CMZ, 14 mM extracellular calcium, read-out: IC50
[2] = CMZ, log of IC50 in μM, logIC50 ± SEM, n = 3, read-out: LogIC50 (converted)
[3] = read-out: normalized RFU (% WT), Clemizole 0.200195 μM, 14 mM Ca2+, each column one independent experiment
[4] = read-out: normalized RFU (% WT), Clemizole 0.800781 μM, 14 mM Ca2+, each column one independent experiment

Clc1ccc(Cn2c(CN3CCCC3)nc3ccccc32)cc1 [CMZ, clemizole]
Hill slope (hTRPC5 F414M; CMZ): −1.45
IC50 (hTRPC5 F414M; [1]): 2.15 µM
IC50 (hTRPC5 F414M; [2]): 2.14 µM
remaining activity at 0.200195 µM (hTRPC5 F414M; [3]): 130%
remaining activity at 0.400391 µM (hTRPC5 F414M; read-out: normalized RFU (% WT), Clemizole 0.400391 μM, 14 mM Ca2+, each column one independent experiment): 116%
remaining activity at 0.800781 µM (hTRPC5 F414M; [4]): 107%
remaining activity at 6.40625 µM (hTRPC5 F414M; read-out: normalized RFU (% WT), Clemizole 6.40625 μM, 14 mM Ca2+, each column one independent experiment): 32.1%
Hill slope (hTRPC5 WT; CMZ): −2.52
IC50 (hTRPC5 WT; [1]): 3.07 µM
IC50 (hTRPC5 WT; [2]): 3.09 µM
remaining activity at 0.200195 µM (hTRPC5 WT; [3]): 76.4%
remaining activity at 0.800781 µM (hTRPC5 WT; [4]): 72.6%
remaining activity at 1.60156 µM (hTRPC5 WT; read-out: normalized RFU (% WT), Clemizole 1.60156 μM, 14 mM Ca2+, each column one independent experiment): 70.5%

— publication PMC7987348, “Structural basis for human TRPC5 channel inhibition by two distinct inhibitors” (eLife, 2021)
